Experimental data reported in US5302591A, “Benzodiazepine derivatives” (Merck Sharpe & Dohme Ltd., priority 1992, dated 1994).

What was measured:
CCK receptor (pancreas) = target: T1, CCK receptor (pancreas) (Rattus norvegicus, UniProt P30551); test: CCK Receptor Binding (Pancreas), inhibition of 125I-CCK-8 binding; set-up: species or system rat (male Sprague-Dawley); conditions: rat pancreas membranes, 50 pM 125I-CCK-8, pH 6.5, 25° C., 2 hours
T1 construct: The whole pancreas was dissected free of fat tissue and was homogenized; from tissue; host or cells: rat whole pancreas membranes
T1 sequence (P30551 1-444): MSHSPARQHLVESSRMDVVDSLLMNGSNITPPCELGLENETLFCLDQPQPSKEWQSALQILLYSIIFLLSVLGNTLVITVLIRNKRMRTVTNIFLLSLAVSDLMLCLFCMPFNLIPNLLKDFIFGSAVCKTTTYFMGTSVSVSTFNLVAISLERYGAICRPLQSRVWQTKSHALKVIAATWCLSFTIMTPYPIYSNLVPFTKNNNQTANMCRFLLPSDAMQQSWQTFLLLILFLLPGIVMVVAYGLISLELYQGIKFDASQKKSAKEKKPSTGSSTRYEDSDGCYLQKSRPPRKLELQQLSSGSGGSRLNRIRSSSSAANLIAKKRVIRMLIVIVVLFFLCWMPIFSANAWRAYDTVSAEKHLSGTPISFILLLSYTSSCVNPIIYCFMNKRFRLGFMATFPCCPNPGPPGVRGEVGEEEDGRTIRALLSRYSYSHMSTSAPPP
Description: 1. CCK Receptor Binding (Pancreas)
CCK-8 sulphated was radiolabelled with ^125 I-Bolton Hunter reagent (2000 Ci/mmole). Receptor binding was performed according to Chang and Lotti (Proc. Natl. Acad. Sci. 83, 4923-4926, 1986) with minor modifications.
Male Sprague-Dawley rats (150-200 g) were sacrificed by decapitation. The whole pancreas was dissected free of fat tissue and was homogenized in 25 volumes of ice-cold 10 mM N-2-hydroxyethyl-piperazine-N'-2-ethane sulphonic acid (HEPES) buffer with 0.1% soya bean trypsin inhibitor (pH 7.4 at 25° C.) with a Kinematica Polytron. The homogenates were centrifuged at 47,800 g for 10 min. Pellets were resuspended in 10 volumes of binding assay buffer (20 mM (HEPES)), 1 mM ethylene glycol-bis-(β-aminoethylether-N,N'-tetraacetic acid) (EGTA), 5 mM MgCl2, 150 mM NaCl, bacitracin 0.25 mg/ml, soya bean trypsin inhibitor 0.1 mg/ml, and bovine serum albumin 2 mg/ml pH 6.5 at 25° C.) using a Teflon (trademark) homogenizer, 15 strokes at 500 rpm. The homogenate was further diluted in binding assay buffer to give a final concentration of 0.5 mg original wet weight/1 ml buffer. […] The radioactivity on the filters was counted with a LKB gamma counter. […]

CCK receptor (brain) = target: T2, CCK receptor (brain) (Cavia porcellus, UniProt H0VZC5); test: CCK Receptor Binding (Brain), inhibition of 125I-CCK-8 binding; set-up: species or system guinea pig (male Hartley); conditions: guinea pig cortex membranes, 50 pM 125I-CCK-8, pH 6.5, 25° C., 2 hours
T2 construct: the cortex was removed and homogenized in 25 mL ice-cold 0.32M sucrose; from tissue; host or cells: guinea pig brain cortex P2 membranes
T2 sequence (H0VZC5 entry or part of it): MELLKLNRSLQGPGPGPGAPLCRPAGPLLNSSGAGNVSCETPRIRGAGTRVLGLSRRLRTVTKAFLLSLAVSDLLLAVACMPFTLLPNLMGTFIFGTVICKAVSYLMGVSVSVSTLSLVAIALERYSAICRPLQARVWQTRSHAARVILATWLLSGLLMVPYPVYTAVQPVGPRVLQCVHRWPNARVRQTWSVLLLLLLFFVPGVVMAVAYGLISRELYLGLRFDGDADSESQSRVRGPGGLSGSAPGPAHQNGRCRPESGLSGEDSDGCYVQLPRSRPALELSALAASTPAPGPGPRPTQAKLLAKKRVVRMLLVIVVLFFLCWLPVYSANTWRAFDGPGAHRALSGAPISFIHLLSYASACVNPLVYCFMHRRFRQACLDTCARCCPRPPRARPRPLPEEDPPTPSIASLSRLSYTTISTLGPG
Description: 2. CCK Receptor Binding (Brain)
CCK-8 sulphated was radiolabelled and the binding was performed according to the description for the pancreas method with minor modifications.
Male Hartley guinea pigs (300-500 g) were sacrificed by decapitation and the cortex was removed and homogenized in 25 mL ice-cold 0.32M sucrose. The homogenates were centrifuged at 1000 g for 10 minutes and the resulting supernatant was recentrifuged at 20,000 g for 20 minutes. The P2 pellet was resuspended in binding assay buffer (20 mM HEPES, 5 mM MgCl2, 0.25 mg/ml bacitracin, 1 mM EGTA pH 6.5 at 25° C.), using a Teflon (trademark) homogenizer (5 strokes at 500 rpm) to give a final concentration of 10 mg original wet weight/1.2 ml buffer. For the binding assay, 50 μl of buffer (for total binding) or unlabelled CCK-8 sulphated to give a final concentration of 1 μM (for nonspecific binding) or the compounds of Formula I (for determination of inhibition of ^125 I-CCK-8 binding) and 50 μl of 500 pM ^125 I-CCK-8 (i.e. final concentration of 50 pM) were added to 400 μl of the membrane suspensions in microfuge tubes. All assays were run in duplicate. […] The radioactivity on the filters was counted with a LKB gamma counter. […]

SMILES	IC50 (CCK receptor (pancreas))	IC50 (CCK receptor (brain))
CN1C(=O)C(NC(=O)Nc2cccc(C(=O)NS(=O)(=O)c3ccccc3)c2)N=C(c2ccncc2)c2ccccc21 (racemic) [Example 1, N-[3(R,S)-2,3-Dihydro-1-methyl-2-oxo-5-(pyridin-4-yl)-1H-1,4-benzodiazepin-3-yl]-N'-[3-(phenylsulphonylaminocarbonyl)phenyl]urea]	790 nM	130 nM
CC(C)S(=O)(=O)NC(=O)c1cccc(NC(=O)NC2N=C(c3ccncc3)c3ccccc3N(C)C2=O)c1 (racemic) [Example 2, N-[3(R,S)-2,3-Dihydro-1-methyl-2-oxo-5-(pyridin-4-yl)-1H-1,4-benzodiazepin-3-yl)-N'-[3-(isopropylsulphonylaminocarbonyl)phenyl]urea]	1630 nM	300 nM
